Where two headings read alike, the source gives them in different places.

For data set [1], the system named is Mycosphaerella graminicola; Anamorph: Septoria tritici; Bayer Code SEPTTR. In words: Evaluation of fungicidal activity: leaf blotch of wheat (SEPTTR), wheat plants variety Yuma. The class given is in vivo. As to conditions: Zymoseptoria tritici. As to the method:
Evaluation of Fungicidal Activity: Leaf Blotch of Wheat (Mycosphaerella graminicola; Anamorph: Septoria tritici; Bayer Code […]) Wheat plants (variety Yuma) were grown from seed in a greenhouse in 50% mineral soil/50% soil-less Metro mix until the first leaf was fully emerged, with 7-10 seedlings per pot. These plants were inoculated with an aqueous spore suspension of Septoria tritici either prior to or after fungicide treatments. After inoculation the plants were kept in 100% relative humidity (one day in a dark dew chamber followed by two to three days in a lighted dew chamber) to permit spores to germinate and infect the leaf. The plants were then transferred to a greenhouse for disease to develop. The following table presents the activity of typical compounds of the present disclosure when evaluated in these experiments. The effectiveness of the test compounds in controlling disease was determined by assessing the severity of disease on treated plants, then converting the severity to percent control based on the level of disease on untreated, inoculated plants. • In each case of Table II the rating scale is as follows: […]

Setting [2] is: 24 h, One-Day Protectant (1DP), 100 ppm, wheat plants, percent control vs untreated inoculated plants, read-out: SEPTTR 100 PPM 1DP (% Disease Control rating).
Setting [3] is: 72 h, Three-Day Curative (3DC), 100 ppm, wheat plants, percent control vs untreated inoculated plants, read-out: SEPTTR 100 PPM 3DC (% Disease Control rating).

For orientation: melting point means the temperature, or range, at which the solid turns liquid. `N#Cc1ccc(NC(=O)n2cc(F)c(N)nc2=O)cc1` [Compound 13] returned a melting point of 254 to 257 °C. Further, in data set [1] (setting [2]), the pest or weed control at 100 ppm lay within 76 to 100%. Moreover, in data set [1] (setting [3]), the pest or weed control at 100 ppm lay within 51 to 75%.

In turn, `CCCCCNC(=O)n1cc(F)c(N)nc1=O` [Compound 4, 4-amino-5-fluoro-2-oxo-N-pentylpyrimidine-1(2H)-carboxamide] registered a melting point of 289 to 292 °C. Moreover, the pest or weed control at 100 ppm in data set [1] (setting [2]) fell in the range of 76 to 100%. For the same compound, the pest or weed control at 100 ppm in data set [1] (setting [3]) was 76 to 100%.

As to `CCCNC(=O)n1cc(F)c(N)nc1=O` [Compound 23], the melting point was 290 to 293 °C. In addition, the pest or weed control at 100 ppm in data set [1] (setting [2]) is 76 to 100%. For the same compound, the pest or weed control at 100 ppm in data set [1] (setting [3]) was in the range of 76 to 100%.

`CCN(C(=S)n1cc(F)c(N)nc1=O)c1ccccc1` [Compound 37] gave a melting point of 223 to 226 °C. For the same compound, in data set [1] (setting [2]), the pest or weed control at 100 ppm was in the range of 76 to 100%. Besides, the pest or weed control at 100 ppm in data set [1] (setting [3]) is 76 to 100%.

`CCCNC(=O)n1cc(F)c(NC(=O)Cc2ccc(OC)cc2)nc1=O` [Compound 43] registered a melting point of 227 to 229 °C. Moreover, the pest or weed control at 100 ppm in data set [1] (setting [2]) was in the range of 76 to 100%. Further, the pest or weed control at 100 ppm in data set [1] (setting [3]) is 76 to 100%.

In turn, `CCCNC(=O)n1cc(F)c(NC(=O)C(C)C)nc1=O` [Compound 41] showed a melting point of 226 to 228 °C. In data set [1] (setting [2]), the pest or weed control at 100 ppm was in the range of 76 to 100%. In data set [1] (setting [3]), the pest or weed control at 100 ppm is 76 to 100%.

As for `Cc1ccccc1NC(=O)n1cc(F)c(N)nc1=O` [Compound 9], the melting point was 277 to 280 °C (dec.). Also, in data set [1] (setting [2]), the pest or weed control at 100 ppm is 76 to 100%. Also, the pest or weed control at 100 ppm in data set [1] (setting [3]) lay within 76 to 100%.

With `O=C(Nc1cccc(Cl)c1)n1cc(F)c(NCc2ccccc2F)nc1=O` [Compound 31], the melting point was 158 to 160 °C. In addition, the pest or weed control at 100 ppm in data set [1] (setting [2]) was 0 to 25%. Further, the pest or weed control at 100 ppm in data set [1] (setting [3]) lay within 0 to 25%.

`CN(C(=S)n1cc(F)c(N)nc1=O)c1ccccc1` [Compound 34, 4-amino-5-fluoro-N-methyl-2-oxo-N-phenylpyrimidine-1(2H)-carbothioamide] came in with a melting point of 192 to 196 °C. In addition, the pest or weed control at 100 ppm in data set [1] (setting [2]) lay within 76 to 100%. The pest or weed control at 100 ppm in data set [1] (setting [3]) is 76 to 100%.

`Nc1nc(=O)n(C(=O)Nc2ccc3sccc3c2)cc1F` [Compound 19] showed a melting point of 282 to 284 °C. Besides, the pest or weed control at 100 ppm in data set [1] (setting [2]) fell in the range of 76 to 100%. Also, in data set [1] (setting [3]), the pest or weed control at 100 ppm was in the range of 76 to 100%.

Regarding `Nc1nc(=O)n(C(=O)Nc2ccc(Cl)cc2)cc1F` [Compound 12], the melting point fell in the range of 261 to 264 °C. In addition, the pest or weed control at 100 ppm in data set [1] (setting [2]) lay within 76 to 100%. Moreover, the pest or weed control at 100 ppm in data set [1] (setting [3]) fell in the range of 76 to 100%.

For `CCNC(=O)n1cc(F)c(NC(=O)NCc2ccccc2OC)nc1=O` [Compound 49, N-ethyl-5-fluoro-4-(3-(2-methoxybenzyl)ureido)-2-oxopyrimidine-1(2H)-carboxamide], the melting point lay within 248 to 250 °C. Besides, the pest or weed control at 100 ppm in data set [1] (setting [2]) is 0 to 25%. The pest or weed control at 100 ppm in data set [1] (setting [3]) was 0 to 25%.

`Nc1nc(=O)n(C(=O)NCc2ccccc2F)cc1F` [Compound 22] displayed a melting point of 260 to 262 °C. Also, the pest or weed control at 100 ppm in data set [1] (setting [2]) was 76 to 100%. Further, the pest or weed control at 100 ppm in data set [1] (setting [3]) lay in the range of 76 to 100%.

Consider `O=C(Nc1ccc(F)cc1F)n1cc(F)c(NCc2ccccc2F)nc1=O` [Compound 29], for which the melting point was 150 to 153 °C. In addition, the pest or weed control at 100 ppm in data set [1] (setting [2]) was 0 to 25%. The pest or weed control at 100 ppm in data set [1] (setting [3]) was in the range of 26 to 50%.

`O=C(Nc1ccccc1)n1cc(F)c(NCc2ccccc2F)nc1=O` [Compound 28, 5-fluoro-4-(2-fluorobenzylamino)-2-oxo-N-phenylpyrimidine-1(2H)-carboxamide] returned a melting point of 154 to 157 °C. For the same compound, the pest or weed control at 100 ppm in data set [1] (24 h, read-out: SEPTTR 100 PPM 1DP (% Disease Control rating)) lay in the range of 0 to 25%. Besides, in data set [1] (72 h, read-out: SEPTTR 100 PPM 3DC (% Disease Control rating)), the pest or weed control at 100 ppm fell in the range of 26 to 50%.

`CCCNC(=O)n1cc(F)c(NC(C)=O)nc1=O` [Compound 39]: the melting point was in the range of 233 to 235 °C. Also, the pest or weed control at 100 ppm in data set [1] (setting [2]) was 76 to 100%. In data set [1] (setting [3]), the pest or weed control at 100 ppm lay within 76 to 100%.

The values above are taken from patent US9000002B2, “N1-substituted-5-fluoro-2-oxopyrimidinone-1(2H)-carboxamide derivatives” (Dow Agrosciences LLC, priority 2009, dated 2015).
